Here are results for two molecules from ChEMBL document CHEMBL5331057, “A decade of approved first-in-class small molecule orphan drugs: Achievements, challenges and perspectives” (Eur J Med Chem, 2022).

Holding throughout (assay type): functional
In test [1] the test system is Mycobacterium tuberculosis.
Test [2] has as its system Mycobacterium tuberculosis. The source holds these as a separate data set.
The test system of test [3] is Mycobacterium tuberculosis. This is another data set of the same source.

Values after ≈ are worked out from the molar mass of the structure shown.

As usually defined, the MIC50 is the lowest concentration that inhibits either 50% of growth or 50% of the strains tested, depending on the study. A low value points to greater potency. As usually defined, the MIC90 is an inhibitory concentration at the 90% level, which refers to growth in some studies and to a panel of isolates in others. Take `O=[N+]([O-])c1cn2c(n1)OC[C@@H](OCc1ccc(OC(F)(F)F)cc1)C2` [PRETOMANID]: in test [1], the MIC50 stood at 0.015 µg/mL (≈ 0.0418 µM) and the MIC90 was determined as 0.063 µg/mL (≈ 0.175 µM).

One may read the MIC as the lowest concentration found to suppress growth. A high value points to weaker potency. Regarding `COc1nc2ccc(Br)cc2cc1[C@@H](c1ccccc1)[C@@](O)(CCN(C)C)c1cccc2ccccc12` [BEDAQUILINE], the MIC worked out at 0.01 µg/mL (≈ 0.018 µM) in test [2] and 0.03 µg/mL (≈ 0.054 µM) in test [3].
